According to the supplement of paper PMC11451515:

Experiments:
Conditions in all cases: 48 h
NOMO1 [1] = assay: cell viability relative to DMSO control; higher = less cytotoxic
Method in brief: (§1)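 Cells were incubated for 48 h at 37°C before CellTiter-Glo One luminescence was read. The cells were NOMO1 or SEM (500 cells/well) or P12-Ichikawa (1000 cells/well) leukemia cells, adapted for at least four passages in each medium and seeded in 1536-well plates (5 μl). Dosing used library compounds in DMSO applied by pin over 11 threefold points, 47 μM to 0.79 nM. Viability is the per-plate percentage of DMSO wells, with cell-free wells as background.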

P12-Ichikawa [2] = assay: as above
Method in brief: as §1

SEM cells [3] = assay: as above
Method in brief: as §1

NOMO1 [4] = assay: AUC of viability dose-response curve (% viability x log10 dose units); higher = less sensitive
Method in brief: (§2)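 Area under the curve was integrated by trapezoidal rule from a log-logistic fit of normalised viability, with curves exceeding full viability scaled and quality-control failures removed. The fit had four parameters over log10 doses. Viability came from CellTiter-Glo One luminescence, normalised per plate to DMSO and cell-free wells, after leukemia cells adapted to each medium (500 or 1000 cells/well, 1536-well plates) were exposed to library compounds in DMSO for 48 h at 37°C. The 11 threefold doses ran from 47 μM to 0.79 nM.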

P12-Ichikawa [5] = assay: as above
Method in brief: as §2

SEM cells [6] = assay: as above
Method in brief: as §2

CCN(CC)CCCCNc1nc2cc(Cl)c(Cl)cc2nc1-c1ccc(-c2cccs2)s1
cell viability [%]
Conditions | NOMO1 [1] | P12-Ichikawa [2] | SEM cells [3]
HPLM + 10% dialyzed FBS, 0.000781 µM | 101 | 94.2 | 83.7
HPLM + 10% dialyzed FBS, 0.00234 µM | 124 | 114 | 110
HPLM + 10% dialyzed FBS, 0.00702 µM | 123 | 75.6 | 27.8
HPLM + 10% dialyzed FBS, 0.0211 µM | 128 | 114 | 121
HPLM + 10% dialyzed FBS, 0.0632 µM | 111 | 109 | 110
HPLM + 10% dialyzed FBS, 0.19 µM | 137 | 134 | 102
HPLM + 10% dialyzed FBS, 0.569 µM | 137 | 118 | 115
HPLM + 10% dialyzed FBS, 1.71 µM | 121 | 121 | 114
HPLM + 10% dialyzed FBS, 5.12 µM | 138 | 115 | 107
HPLM + 10% dialyzed FBS, 15.4 µM | 98.4 | 123 | 124
HPLM + 10% dialyzed FBS, 46.1 µM | 3.87 | 59.9 | 8.47
RPMI 5 mM glucose + 10% FBS, 0.000781 µM | 97 | 99.9 | 93.7
RPMI 5 mM glucose + 10% FBS, 0.00234 µM | 103 | 119 | 94.9
RPMI 5 mM glucose + 10% FBS, 0.00702 µM | 111 | 64.8 | 8.03
RPMI 5 mM glucose + 10% FBS, 0.0211 µM | 115 | 123 | 101
RPMI 5 mM glucose + 10% FBS, 0.0632 µM | 123 | 120 | 96.8
RPMI 5 mM glucose + 10% FBS, 0.19 µM | 119 | 125 | 102
RPMI 5 mM glucose + 10% FBS, 0.569 µM | 123 | 134 | 114
RPMI 5 mM glucose + 10% FBS, 1.71 µM | 102 | 125 | 98.9
RPMI 5 mM glucose + 10% FBS, 5.12 µM | 117 | 123 | 107
RPMI 5 mM glucose + 10% FBS, 15.4 µM | 113 | 114 | 93.9
RPMI 5 mM glucose + 10% FBS, 46.1 µM | 5.9 | 5.94 | 5.71
RPMI 5 mM glucose + 10% dialyzed FBS, 0.000781 µM | 98.3 | 107 | 106
RPMI 5 mM glucose + 10% dialyzed FBS, 0.00234 µM | 112 | 116 | 121
RPMI 5 mM glucose + 10% dialyzed FBS, 0.00702 µM | 108 | 78 | 26.4
RPMI 5 mM glucose + 10% dialyzed FBS, 0.0211 µM | 112 | 118 | 130
RPMI 5 mM glucose + 10% dialyzed FBS, 0.0632 µM | 110 | 120 | 118
RPMI 5 mM glucose + 10% dialyzed FBS, 0.19 µM | 119 | 129 | 126
RPMI 5 mM glucose + 10% dialyzed FBS, 0.569 µM | 114 | 123 | 116
RPMI 5 mM glucose + 10% dialyzed FBS, 1.71 µM | 108 | 127 | 116
RPMI 5 mM glucose + 10% dialyzed FBS, 5.12 µM | 112 | 121 | 126
RPMI 5 mM glucose + 10% dialyzed FBS, 15.4 µM | 108 | 108 | 131
RPMI 5 mM glucose + 10% dialyzed FBS, 46.1 µM | 5.42 | 6.07 | 8.47

NOMO1 [4]
Conditions | AUC of viability dose-response curve
HPLM + 10% dialyzed FBS | 444
RPMI 5 mM glucose + 10% FBS | 454
RPMI 5 mM glucose + 10% dialyzed FBS | 453

COc1cc(C)c(Sc2cnc(NC(=O)c3ccc(CNC(C)C(C)(C)C)cc3)s2)cc1C(=O)N1CCN(C(C)=O)CC1 (stereo not given)
Conditions | cell viability [%]
NOMO1 [1], RPMI 5 mM glucose + 10% FBS, 0.000781 µM | 116
NOMO1 [1], RPMI 5 mM glucose + 10% FBS, 0.00234 µM | 131
NOMO1 [1], RPMI 5 mM glucose + 10% FBS, 0.00702 µM | 124
NOMO1 [1], RPMI 5 mM glucose + 10% FBS, 0.0211 µM | 128
NOMO1 [1], RPMI 5 mM glucose + 10% FBS, 0.0632 µM | 127
NOMO1 [1], RPMI 5 mM glucose + 10% FBS, 0.19 µM | 124
NOMO1 [1], RPMI 5 mM glucose + 10% FBS, 0.569 µM | 132
NOMO1 [1], RPMI 5 mM glucose + 10% FBS, 1.71 µM | 115
NOMO1 [1], RPMI 5 mM glucose + 10% FBS, 5.12 µM | 114
NOMO1 [1], RPMI 5 mM glucose + 10% FBS, 15.4 µM | 115
NOMO1 [1], RPMI 5 mM glucose + 10% FBS, 46.1 µM | 17
P12-Ichikawa [2], HPLM + 10% dialyzed FBS, 0.000781 µM | 125
P12-Ichikawa [2], HPLM + 10% dialyzed FBS, 0.00234 µM | 129
P12-Ichikawa [2], HPLM + 10% dialyzed FBS, 0.00702 µM | 120
P12-Ichikawa [2], HPLM + 10% dialyzed FBS, 0.0211 µM | 120
P12-Ichikawa [2], HPLM + 10% dialyzed FBS, 0.0632 µM | 122
P12-Ichikawa [2], HPLM + 10% dialyzed FBS, 0.19 µM | 127
P12-Ichikawa [2], HPLM + 10% dialyzed FBS, 0.569 µM | 115
P12-Ichikawa [2], HPLM + 10% dialyzed FBS, 1.71 µM | 110
P12-Ichikawa [2], HPLM + 10% dialyzed FBS, 5.12 µM | 109
P12-Ichikawa [2], HPLM + 10% dialyzed FBS, 15.4 µM | 101
P12-Ichikawa [2], HPLM + 10% dialyzed FBS, 46.1 µM | 7.33

AUC of viability dose-response curve
Conditions | NOMO1 [4] | P12-Ichikawa [5] | SEM cells [6]
HPLM + 10% dialyzed FBS | 442 | 447 | 365
RPMI 5 mM glucose + 10% FBS | 453 | 444 | 358
RPMI 5 mM glucose + 10% dialyzed FBS | 437 | 439 | 350

O=C(Nc1nc2ccccc2n1CCN1CCOCC1)c1cccc([N+](=O)[O-])c1
AUC of viability dose-response curve
Conditions | NOMO1 [4] | P12-Ichikawa [5] | SEM cells [6]
HPLM + 10% dialyzed FBS | 447 | 462 | 474
RPMI 5 mM glucose + 10% FBS | 465 | 445 | 465
RPMI 5 mM glucose + 10% dialyzed FBS | 470 | 449 | 444

C[N]1C2=C(SC(=C2)[S+](C)[O-])C\3=C1C(=O)N(CC4=CC(=CC=C4)N)\N=C3 (stereo not given)
AUC of viability dose-response curve
Conditions | HPLM + 10% dialyzed FBS | RPMI 5 mM glucose + 10% FBS | RPMI 5 mM glucose + 10% dialyzed FBS
P12-Ichikawa [5] | 414 | 404 | 392
SEM cells [6] | 426 | 426 | 403

C=CCNC1=C2C[C@@H](C)C[C@H](OC)[C@H](O)[C@@H](C)/C=C(\C)[C@H](OC(N)=O)[C@@H](OC)/C=C\C=C(/C)C(=O)NC(=CC1=O)C2=O
AUC of viability dose-response curve
Conditions | NOMO1 [4] | P12-Ichikawa [5] | SEM cells [6]
HPLM + 10% dialyzed FBS | 390 | 403 | 310
RPMI 5 mM glucose + 10% FBS | 389 | 380 | 285
RPMI 5 mM glucose + 10% dialyzed FBS | 385 | 384 | 291

Cc1cccc(C#Cc2ccccc2)n1
cell viability [%]
Conditions | P12-Ichikawa [2] | SEM cells [3]
HPLM + 10% dialyzed FBS, 0.000781 µM | 120 | 119
HPLM + 10% dialyzed FBS, 0.00234 µM | 128 | 140
HPLM + 10% dialyzed FBS, 0.00702 µM | 124 | 123
HPLM + 10% dialyzed FBS, 0.0211 µM | 124 | 134
HPLM + 10% dialyzed FBS, 0.0632 µM | 125 | 132
HPLM + 10% dialyzed FBS, 0.19 µM | 122 | 117
HPLM + 10% dialyzed FBS, 0.569 µM | 112 | 137
HPLM + 10% dialyzed FBS, 1.71 µM | 121 | 134
HPLM + 10% dialyzed FBS, 5.12 µM | 113 | 116
HPLM + 10% dialyzed FBS, 15.4 µM | 117 | 106
HPLM + 10% dialyzed FBS, 46.1 µM | 105 | 89.5
RPMI 5 mM glucose + 10% FBS, 0.000781 µM | – | 128
RPMI 5 mM glucose + 10% FBS, 0.00234 µM | – | 118
RPMI 5 mM glucose + 10% FBS, 0.00702 µM | – | 109
RPMI 5 mM glucose + 10% FBS, 0.0211 µM | – | 123
RPMI 5 mM glucose + 10% FBS, 0.0632 µM | – | 128
RPMI 5 mM glucose + 10% FBS, 0.19 µM | – | 118
RPMI 5 mM glucose + 10% FBS, 0.569 µM | – | 128
RPMI 5 mM glucose + 10% FBS, 1.71 µM | – | 121
RPMI 5 mM glucose + 10% FBS, 5.12 µM | – | 102
RPMI 5 mM glucose + 10% FBS, 15.4 µM | – | 105
RPMI 5 mM glucose + 10% FBS, 46.1 µM | – | 84.4

AUC of viability dose-response curve
Conditions | NOMO1 [4] | P12-Ichikawa [5] | SEM cells [6]
HPLM + 10% dialyzed FBS | 461 | 456 | 456
RPMI 5 mM glucose + 10% FBS | 464 | 445 | 455
RPMI 5 mM glucose + 10% dialyzed FBS | 463 | 450 | 449

COc1cc(C(C)=O)ccc1OCCCN1CCC(c2noc3cc(F)ccc23)CC1
cell viability [%]
Conditions | P12-Ichikawa [2] | SEM cells [3]
HPLM + 10% dialyzed FBS, 0.000781 µM | 118 | 110
HPLM + 10% dialyzed FBS, 0.00234 µM | 115 | 112
HPLM + 10% dialyzed FBS, 0.00702 µM | 119 | 118
HPLM + 10% dialyzed FBS, 0.0211 µM | 127 | 95
HPLM + 10% dialyzed FBS, 0.0632 µM | 124 | 99.3
HPLM + 10% dialyzed FBS, 0.19 µM | 127 | 124
HPLM + 10% dialyzed FBS, 0.569 µM | 129 | 123
HPLM + 10% dialyzed FBS, 1.71 µM | 124 | 123
HPLM + 10% dialyzed FBS, 5.12 µM | 129 | 122
HPLM + 10% dialyzed FBS, 15.4 µM | 125 | 128
HPLM + 10% dialyzed FBS, 46.1 µM | 120 | 88.7
RPMI 5 mM glucose + 10% dialyzed FBS, 0.000781 µM | – | 113
RPMI 5 mM glucose + 10% dialyzed FBS, 0.00234 µM | – | 121
RPMI 5 mM glucose + 10% dialyzed FBS, 0.00702 µM | – | 137
RPMI 5 mM glucose + 10% dialyzed FBS, 0.0211 µM | – | 135
RPMI 5 mM glucose + 10% dialyzed FBS, 0.0632 µM | – | 115
RPMI 5 mM glucose + 10% dialyzed FBS, 0.19 µM | – | 142
RPMI 5 mM glucose + 10% dialyzed FBS, 0.569 µM | – | 160
RPMI 5 mM glucose + 10% dialyzed FBS, 1.71 µM | – | 135
RPMI 5 mM glucose + 10% dialyzed FBS, 5.12 µM | – | 158
RPMI 5 mM glucose + 10% dialyzed FBS, 15.4 µM | – | 138
RPMI 5 mM glucose + 10% dialyzed FBS, 46.1 µM | – | 106

AUC of viability dose-response curve
Conditions | NOMO1 [4] | P12-Ichikawa [5] | SEM cells [6]
HPLM + 10% dialyzed FBS | 468 | 470 | 468
RPMI 5 mM glucose + 10% FBS | 468 | 472 | 446
RPMI 5 mM glucose + 10% dialyzed FBS | 464 | 471 | 455

Cc1ccc(CN2CCNCC2)cc1NC(=O)CNc1ccc(F)c(F)c1
AUC of viability dose-response curve
Conditions | NOMO1 [4] | P12-Ichikawa [5] | SEM cells [6]
HPLM + 10% dialyzed FBS | 435 | 454 | 447
RPMI 5 mM glucose + 10% FBS | 459 | 457 | 464
RPMI 5 mM glucose + 10% dialyzed FBS | 444 | 445 | 431
